Converted amounts (≈) assume the structure as drawn.
What was measured:
Enterococcus faecium = assay: MIC, broth microdilution method (NCCLS M7-A5); format: cell-based; conditions: 568 Enterococcus faecium cl.isol.

| SMILES | MIC (Staph. haemolyticus) | MIC (Enterococcus faecium) [µg/mL] |
| --- | --- | --- |
| C=C1NC(=O)C(Cc2c[nH]c3ccc(Cl)cc23)NC(=O)C(NC(=O)C(=CC)NC(=O)C(N)C(C)C)CSCC(C(=O)NC2C(=O)N3CCCC3C(=O)NCC(=O)NC(C(=O)NC(C(=O)NC3CSCC4NC(=O)C(CC(N)=O)NC(=O)C(CSCC5NC(=O)C(Cc6ccccc6)NC(=O)C(CS/C=C\NC5=O)NC4=O)NC(=O)CNC(=O)CNC(=O)CNC(=O)C4C(O)C(O)CN4C3=O)C(C)O)CSC2C)NC(=O)C(CC(C)C)NC1=O (stereo not drawn) [Factor A1] | 0,25 µg/ml | – |
| C=C1NC(=O)C(Cc2c[nH]c3ccc(Cl)cc23)NC(=O)C(NC(=O)C(=CC)NC(=O)C(N)C(C)C)CSCC(C(=O)NC2C(=O)N3CCCC3C(=O)NCC(=O)NC(C(=O)NC(C(=O)NC3CSCC4NC(=O)C(CC(N)=O)NC(=O)C(CSCC5NC(=O)C(Cc6ccccc6)NC(=O)C(CS/C=C\NC5=O)NC4=O)NC(=O)CNC(=O)CNC(=O)CNC(=O)C4CC(O)CN4C3=O)C(C)O)CSC2C)NC(=O)C(CC(C)C)NC1=O (stereo not drawn) [Factor A2] | 0,25 µg/ml | 2 (≈ 0.896 µM) |
